Like-named read-outs stand apart in the source and are kept apart here. Values belong to the molecule of their own block, whether it stands above or below them.
Assays:
[1] = Pharmacokinetic assay in mice, per oral administration; type: in vivo; settings: ICR mice
Source text: C. Pharmacokinetic Assay in Mice
The purpose of this study was to study the pharmacokinetic behaviors of some compounds of the present invention, and administration routes were: per oral administration (PO) to ICR mice:
The compounds used in this test came from the compounds of the specific examples of the present invention.
ICR mice male N=3 original source: Shanghai Sippr-BK Laboratory Animal Co. Ltd.
2.3 Preparation and Administration of Medicaments
The compounds were weighed, and dissolved in solvent of 0.5% SDS+0.5% CMCNa. The mixture solutions were mixed well by shaking and ultrasonic treatment to obtain colorless clear solutions. The solutions were orally administered to nine mice after an overnight fast. The dosage of administration was 10 mg/kg (or 30 mg/kg).
With about 90 μL/time point, blood was drawn from the submaxillary vein, and heparin sodium was added for anticoagulation. The blood samples were placed onto the ice, and were centrifuged (centrifugation conditions: 8000 r/min, 6 min, 2-8° C.) within 1 hr to obtain plasmas. The time points for blood sampling were at 0 hr, 0.25 hr, 0.5 hr, 1 hr, 2 hrs, 4 hrs, 6 hrs, 8 hrs and 24 hrs after administration. The samples were stored in a refrigerator at −20° C.
40 μL of plasma sample was added to 160 μL of cold acetonitrile containing an internal standard, and the mixture solution was vortexed for 3 min and centrifuged at 11,000 r/min for 5 min. 100 μL of supernate was taken and added to 100 μL of water, and 5 μL of the sample was taken and analyzed by LC/MS/MS. Only the original compounds were analyzed for examples 1, 3, 5, 8, 46 and 141 (for results, see table 2); and both the original compounds and possible products of ester hydrolysis, namely example 2, 27, 65 and 105, were analyzed for examples 4, 26, 64 and 104 (for results, see table 3).

[2] = target: interaction between PD-1 and PD-L1 expressed on cell surfaces (Homo sapiens (Human), UniProt Q9NZQ7); test: Jurkat reporter gene cellular assay (Jurkat/NF-κB-luc/PD1 cells cocultured with Raji-PD-L1 cells, OKT-3 stimulation); type: cell-based
In short: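 Jurkat cells stably expressing human PD-1 and NF-κB-luciferase were cocultured with Raji cells stably expressing human PD-L1 under OKT-3 stimulation, with compound present. Luminescence was read after 6 h.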

[3] = target: interaction between PD-1 and PD-L1 (Homo sapiens (Human), UniProt Q9NZQ7); test: PD1-PDL1 HTRF binding activity test (Cisbio PD-1/PD-L1 binding assay kit)
[4] = male, mouse, plasma, PO 10 mg/kg, original compound analyzed
[5] = male, mouse, plasma, PO 10 mg/kg, original compound analyzed, class symbol
[6] = male, mouse, PO 10 mg/kg, plasma, original compound analyzed, class symbol, read-out: Cmax
[7] = NF-κB-luc reporter activation fold, 6 hrs, read-out: Cell Activity EC50
[8] = read-out: PD1-PDL1 HTRF Binding Activity IC50
[9] = male, mouse, plasma, PO 30 mg/kg, original compound (ester) analyzed
[10] = male, mouse, plasma, PO 30 mg/kg, original compound (ester) analyzed, class symbol
[11] = male, mouse, plasma, PO 30 mg/kg, original compound (ester) analyzed, class symbol, read-out: Cmax

Chain of interaction between PD-1 and PD-L1 expressed on cell surfaces (Q9NZQ7 19-290): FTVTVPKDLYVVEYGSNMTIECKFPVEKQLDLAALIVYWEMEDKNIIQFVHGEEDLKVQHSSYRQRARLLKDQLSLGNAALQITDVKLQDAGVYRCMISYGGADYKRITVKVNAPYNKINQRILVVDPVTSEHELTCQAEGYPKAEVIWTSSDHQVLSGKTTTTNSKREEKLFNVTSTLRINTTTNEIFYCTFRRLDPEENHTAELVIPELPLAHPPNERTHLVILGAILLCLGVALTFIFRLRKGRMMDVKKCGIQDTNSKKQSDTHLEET
Chain of interaction between PD-1 and PD-L1 (Q9NZQ7 19-238): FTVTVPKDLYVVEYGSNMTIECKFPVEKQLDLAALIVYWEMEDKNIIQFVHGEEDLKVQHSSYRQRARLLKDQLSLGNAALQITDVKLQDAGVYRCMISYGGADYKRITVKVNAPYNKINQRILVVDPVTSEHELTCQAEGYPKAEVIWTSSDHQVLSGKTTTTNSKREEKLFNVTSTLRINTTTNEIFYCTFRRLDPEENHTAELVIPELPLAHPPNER

- MRT [1, 4]: 3.3 h
- Tmax [1, 4]: 1 h
- half-life [1, 4]: 144 min
- AUC(0-t) [1, 5]: ≤ 500 ng·h/mL
- Cmax [1, 6]: ≤ 100 ng/mL
- EC50 [2]: 137 nM
- IC50 [3]: 0.17 nM
Compound: Cc1c(NC(=O)c2ccc(CNCCO)cn2)cccc1-c1cccc(NC(=O)c2ccc(CNCCO)cn2)c1C [Example 1, N,N′-(2,2′-dimethyl-[1,1′-biphenyl]-3,3′-diyl)bis(5-(((2-hydroxyethyl)amino)methyl)picolinamide)]

- MRT [1, 4]: 16.7 h
- Tmax [1, 4]: 0.5 h
- half-life [1, 4]: 774 min
- AUC(0-t) [1, 5]: > 2000 ng·h/mL
- Cmax [1, 6]: 100 to 500 ng/mL
- EC50 [2, 7]: 37 nM
- IC50 [3, 8]: 0.2 nM
Compound: COc1cc(C(=O)Nc2cccc(-c3cccc(NC(=O)c4cc(OC)c(CNCCO)cn4)c3C)c2C)ncc1CNCCO [Example 3, N,N′-(2,2′-dimethyl-[1,1′-biphenyl]-3,3′-diyl)bis(5-(((2-hydroxyethyl)amino)methyl)-4-methoxypicolinamide)]

- AUC(0-t) [1, 4]: 1680 ng·h/mL
- MRT [1, 4]: 10.2 h
- Tmax [1, 4]: 2 h
- half-life [1, 4]: 498 min
- Cmax [1, 6]: 100 to 500 ng/mL
- EC50 [2, 7]: 64 nM
- IC50 [3, 8]: 0.36 nM
Compound: Cc1cc(C(=O)Nc2cccc(-c3cccc(NC(=O)c4cc(C)c(CNCCO)cn4)c3C)c2C)ncc1CNCCO [Example 5, N,N′-(2,2′-dimethyl-[1,1′-biphenyl]-3,3′-diyl)bis(5-(((2-hydroxyethyl)amino)methyl)-4-methylpicolinamide)]

- MRT [1, 4]: 5.4 h
- Tmax [1, 4]: 2 h
- half-life [1, 4]: 180 min
- AUC(0-t) [1, 5]: 500 to 2000 ng·h/mL
- Cmax ([1]; male, mouse, PO 10 mg/kg, plasma, original compound analyzed, read-out: Cmax): 319 ng/mL
- EC50 [2, 7]: 186 nM
- IC50 [3, 8]: 0.41 nM
Compound: Cc1cc(C(=O)Nc2cccc(-c3cccc(NC(=O)c4cc(C)c(CNC(CO)CO)cn4)c3C)c2C)ncc1CNC(CO)CO [Example 8, N,N′-(2,2′-dimethyl-[1,1′-biphenyl]-3,3′-diy)bis(5-(((1,3-dihydroxypropan-2-yl)amino)methyl)-4-methylpicolinamide)]

- EC50 [2, 7]: 27.4 nM
- IC50 [3, 8]: 0.32 nM
Compound: Cc1c(NC(=O)c2cc(C3CC3)c(CNC[C@@H](O)CC(=O)O)cn2)cccc1-c1cccc(NC(=O)c2cc(C3CC3)c(CNC[C@@H](O)CC(=O)O)cn2)c1C [Example 136, (3S,3′S)-4,4′-((((((2,2′-dimethyl-[1,1′-biphenyl]-3,3′-diyl)bis(azanediyl))bis (carbonyl))bis(4-cyclopropylpyridine-6,3-diyl))bis(methylene))bis(azanediyl)) bis(3-hydroxybutanoic acid)]

- EC50 [2, 7]: 581 nM
- IC50 [3, 8]: 5.03 nM
Compound: Cc1c(NC(=O)c2cc(C3CC3)c(CNCCF)cn2)cccc1-c1cccc(NC(=O)c2cc(C3CC3)c(CNCCF)cn2)c1C [Example 138, N,N′-(2,2′-dimethyl-[1,1′-biphenyl]-3,3′-diyl)bis(4-cyclopropyl-5-(((2-fluoroethyl)amino)methyl)picolinamide)]

- EC50 [2, 7]: > 10000 nM
- IC50 [3, 8]: 120 nM
Compound: Cc1c(NC(=O)c2cc(C3CC3)c(CNCC(F)F)cn2)cccc1-c1cccc(NC(=O)c2cc(C3CC3)c(CNCC(F)F)cn2)c1C [Example 139, N,N′-(2,2′-dimethyl-[1,1′-biphenyl]-3,3′-diyl)bis(4-cyclopropyl-5-(((2,2-difluoroethyl)amino)methyl)picolinamide)]

Second part, the molecule before the results:

Compound: COC(=O)[C@@H](CO)NCc1cnc(C(=O)Nc2cccc(-c3cccc(NC(=O)c4cc(OC)c(CN[C@H](CO)C(=O)OC)cn4)c3C)c2C)cc1OC [Example 4, dimethyl 2,2′-((((((2,2′-dimethyl-[1,1′-biphenyl]-3,3′-diyl)bis(azanediyl))bis(carbonyl))bis(4-methoxypyridine-6,3-diyl))bis(methylene))bis(azanediyl))(2R,2′R)-bis(3-hydroxypropanoate)]
- Cmax ([1]; PO 30 mg/kg, original compound (ester) analyzed): BQL
- ester hydrolysis in the bodies of the mice after oral administration [1]: rapidly became corresponding acids
- EC50 [2, 7]: 1340 nM
- IC50 [3, 8]: 0.064 nM

Compound: COC(=O)[C@@H]1CCCCN1Cc1cnc(C(=O)Nc2cccc(-c3cccc(NC(=O)c4cc(C)c(CN5CCCC[C@H]5C(=O)OC)cn4)c3C)c2C)cc1C [Example 26, dimethyl 1,1′-(((((2,2′-dimethyl-[1,1′-biphenyl]-3,3′-diyl)bis (azanediyl))bis(carbonyl))bis (4-methylpyridine-6,3-diyl))bis(methylene))(2S,2′S)-bis (piperidine-2-carboxylate)]
- MRT [1, 9]: 7 h
- Tmax [1, 9]: 6 h
- half-life [1, 9]: 216 min
- AUC(0-t) [1, 10]: > 2000 ng·h/mL
- Cmax [1, 11]: > 500 ng/mL
- ester hydrolysis in the bodies of the mice after oral administration [1]: no product of ester hydrolysis was detected
- IC50 [3, 8]: 65.3 nM

Compound: Cc1cc(C(=O)Nc2cccc(-c3cccc(NC(=O)c4cc(C)c(CN5CCCC[C@H]5C(=O)O)cn4)c3C)c2C)ncc1CN1CCCC[C@H]1C(=O)O [Example 27, (2S,2′S)-1,1′-(((((2,2′-dimethyl-[1,1′-biphenyl]-3,3′-diyl)bis(azanediyl))bis(carbonyl))bis(4-methylpyridine-6,3-diyl))bis (methylene))bis(piperidine-2-carboxylic acid)]
- Cmax ([1]; product of ester hydrolysis analyzed after PO 30 mg/kg of the ester (2 after 4, 27 after 26, 65 after 64)): BQL
- EC50 [2, 7]: 128 nM
- IC50 [3, 8]: 0.28 nM

Compound: COc1cc(C(=O)Nc2cccc(-c3cccc(NC(=O)c4cc(OC)c(CN5CC(C)(O)C5)cn4)c3C)c2C)ncc1CN1CC(C)(O)C1 [Example 46, N,N'-(2,2′-dimethyl-[1,1′-biphenyl]-3,3′-diyl)bis(5-((3-hydroxy-3-methylazetidin-1-yl)methyl)-4-methoxypicolinamide)]
- MRT [1, 4]: 15.5 h
- Tmax [1, 4]: 4 h
- half-life [1, 4]: 642 min
- AUC(0-t) [1, 5]: 500 to 2000 ng·h/mL
- Cmax [1, 6]: ≤ 100 ng/mL
- EC50 [2, 7]: 64 nM
- IC50 [3, 8]: 0.25 nM

Compound: COC(=O)[C@@H]1CCCCN1Cc1cnc(C(=O)Nc2cccc(-c3cccc(NC(=O)c4cc(OC)c(CN5CCCC[C@H]5C(=O)OC)cn4)c3C)c2C)cc1OC [Example 64]
- MRT [1, 9]: 4.6 h
- Tmax [1, 9]: 2 h
- half-life [1, 9]: 222 min
- AUC(0-t) [1, 10]: > 2000 ng·h/mL
- Cmax [1, 11]: > 500 ng/mL
- ester hydrolysis in the bodies of the mice after oral administration [1]: no product of ester hydrolysis was detected
- EC50 [2, 7]: 1860 nM
- IC50 [3, 8]: 10.7 nM

Compound: COC(=O)[C@H]1CCN(Cc2cnc(C(=O)Nc3cccc(-c4cccc(NC(=O)c5cc(C6CC6)c(CN6CC[C@H](C(=O)OC)C6)cn5)c4C)c3C)cc2C2CC2)C1 [Example 133, dimethyl 1,1′-(((((2,2′-dimethyl-[1,1′-biphenyl]-3,3′-diyl)bis(azanediyl))bis (carbonyl))bis(4-cyclopropylpyridine-6,3-diyl))bis(methylene))(3S,3′S)-bis (pyrrolidine-3-carboxylate)]
- EC50 [2, 7]: 1900 nM
- IC50 [3, 8]: 11.8 nM

Compound: Cc1c(NC(=O)c2cc(C3CC3)c(CN3CC[C@H](C(=O)O)C3)cn2)cccc1-c1cccc(NC(=O)c2cc(C3CC3)c(CN3CC[C@H](C(=O)O)C3)cn2)c1C [Example 134, (3S,3′S)-1,1′-(((((2,2′-dimethyl-[1,1′-biphenyl]-3,3′-diyl)bis(azanediyl))bis (carbonyl))bis(4-cyclopropylpyridine-6,3-diyl))bis(methylene))bis(pyrrolidine-3-carboxylic acid)]
- EC50 [2, 7]: 21 nM
- IC50 [3, 8]: 0.82 nM

Compound: Cc1c(NC(=O)c2cc(C3CC3)c(CNC[C@@H]3CCC(=O)N3)cn2)cccc1-c1cccc(NC(=O)c2cc(C3CC3)c(CNC[C@@H]3CCC(=O)N3)cn2)c1C [Example 137, N,N′-(2,2′-dimethyl-[1,1′-biplienyl]-3,3′-diyl)bis(4-cyclopropyl-5-(((((S)-5-oxopyrrolidin-2-yl)methyl)amino)methyl)picolinamide)]
- EC50 [2, 7]: 108 nM
- IC50 [3, 8]: 2.07 nM

Compound: Cc1c(NC(=O)c2cc(C3CC3)c(CNCC(F)(F)F)cn2)cccc1-c1cccc(NC(=O)c2cc(C3CC3)c(CNCC(F)(F)F)cn2)c1C [Example 140, N,N′-(2,2′-dimethyl-[1,1′-biphenyl]-3,3′-diyl)bis(4-cyclopropyl-5-(((2,2,2-trifluoroethyl)amino)methyl)picolinamide)]
- EC50 [2, 7]: 2710 nM
- IC50 [3, 8]: 15.1 nM

Compound: Cc1cc(C(=O)Nc2cccc(-c3ccccc3)c2C)ncc1CNCCO [Positive compound, reference compound]
- EC50 [2, 7]: > 10000 nM
- IC50 [3, 8]: 2.4 nM

Source: patent US11459339B2, “Biaryl derivative, preparation method thereof and pharmaceutical application thereof” (Abbisko Therapeutics Co., Ltd., priority 2018, dated 2022)
